Data from patent US5358951A, “Angiotensin II receptor blocking 2, 3, 6 substituted quinazolinones” (American Cyanamid Company, priority 1993, dated 1994).

Test system: vasopressor response of angiotensin II
Test: AII Challenge: antagonism of angiotensin II vasopressor response
Format: in vivo
Conditions: for inhibition in vivo at 3 mg/kg / inhibition in vivo at 5 mg/kg: Rattus norvegicus; for inhibition in vivo at 3 mg/kg: iv; for inhibition in vivo at 5 mg/kg: po
Method in brief: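 Percent antagonism is based on the systolic blood pressure rise (mmHg) to i.v. angiotensin II at 0.05 and 0.1 ug/kg. Each rat's own predose response was taken as 100%. Challenges were repeated from 30 to 300 min after i.v., i.p. or oral compound in cannulated conscious male SHR, 16-20 weeks old.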

## CCCCc1nc2ccc(C3ON4CCCC4C3C(=O)OCC)cc2c(=O)n1Cc1ccc(-c2ccccc2-c2nnn[nH]2)cc1 (stereo not shown) [Example 62, Ethyl 2-[2-butyl-3,4-dihydro-4-oxo-3-[[2'-(1H-tetrazol-5-yl)[1,1'-biphenyl]-4-yl]methyl]-6quinazolinyl]hexahydro-pyrrolo[1,2-b]isoxazole3-carboxylate]
3 mg/kg I.V., AII 0.05 mcg/kg IV, 30 min post dose
  Response Average Change: 14 mmHg
3 mg/kg I.V., AII 0.05 mcg/kg IV, 60 min post dose
  Response Average Change: 18 mmHg
3 mg/kg I.V., AII 0.05 mcg/kg IV, 90 min post dose
  Response Average Change: 30 mmHg
3 mg/kg I.V., AII 0.05 mcg/kg IV, 120 min post dose
  Response Average Change: 25 mmHg
3 mg/kg I.V., AII 0.05 mcg/kg IV, 180 min post dose
  Response Average Change: 33.5 mmHg
3 mg/kg I.V., AII 0.1 mcg/kg IV, 30 min post dose
  Response Average Change: 10 mmHg
3 mg/kg I.V., AII 0.1 mcg/kg IV, 60 min post dose
  Response Average Change: 36 mmHg
3 mg/kg I.V., AII 0.1 mcg/kg IV, 90 min post dose
  Response Average Change: 40 mmHg
3 mg/kg I.V., AII 0.1 mcg/kg IV, 120 min post dose
  Response Average Change: 35 mmHg
3 mg/kg I.V., AII 0.1 mcg/kg IV, 180 min post dose
  Response Average Change: 35 mmHg
5 mg/kg P.O., AII 0.05 mcg/kg IV, 30 min post dose
  Response Average Change: 22.5 mmHg
5 mg/kg P.O., AII 0.05 mcg/kg IV, 60 min post dose
  Response Average Change: 37.5 mmHg
5 mg/kg P.O., AII 0.05 mcg/kg IV, 120 min post dose
  Response Average Change: 40 mmHg
5 mg/kg P.O., AII 0.05 mcg/kg IV, 180 min post dose
  Response Average Change: 25 mmHg
5 mg/kg P.O., AII 0.05 mcg/kg IV, 240 min post dose
  Response Average Change: 40 mmHg
5 mg/kg P.O., AII 0.1 mcg/kg IV, 30 min post dose
  Response Average Change: 43.5 mmHg
5 mg/kg P.O., AII 0.1 mcg/kg IV, 60 min post dose
  Response Average Change: 43.5 mmHg
5 mg/kg P.O., AII 0.1 mcg/kg IV, 90 min post dose
  Response Average Change: 45 mmHg
5 mg/kg P.O., AII 0.1 mcg/kg IV, 120 min post dose
  Response Average Change: 45 mmHg
5 mg/kg P.O., AII 0.1 mcg/kg IV, 180 min post dose
  Response Average Change: 47.5 mmHg
5 mg/kg P.O., AII 0.1 mcg/kg IV, 240 min post dose
  Response Average Change: 50 mmHg
0.5 h, 3 mg/kg I.V., AII 0.05 mcg/kg IV, 30 min post dose
  inhibition in vivo at 3 mg/kg: 61%
0.5 h, 3 mg/kg I.V., AII 0.1 mcg/kg IV, 30 min post dose
  inhibition in vivo at 3 mg/kg: 82%
1 h, 3 mg/kg I.V., AII 0.05 mcg/kg IV, 60 min post dose
  inhibition in vivo at 3 mg/kg: 49%
1 h, 3 mg/kg I.V., AII 0.1 mcg/kg IV, 60 min post dose
  inhibition in vivo at 3 mg/kg: 36%
2 h, 3 mg/kg I.V., AII 0.05 mcg/kg IV, 120 min post dose
  inhibition in vivo at 3 mg/kg: 30%
2 h, 3 mg/kg I.V., AII 0.1 mcg/kg IV, 120 min post dose
  inhibition in vivo at 3 mg/kg: 38%
3 h, 3 mg/kg I.V., AII 0.05 mcg/kg IV, 180 min post dose
  inhibition in vivo at 3 mg/kg: 6%
3 h, 3 mg/kg I.V., AII 0.1 mcg/kg IV, 180 min post dose
  inhibition in vivo at 3 mg/kg: 38%
[…], 3 mg/kg I.V., AII 0.05 mcg/kg IV, 90 min post dose
  inhibition in vivo at 3 mg/kg: 15%
[…], 3 mg/kg I.V., AII 0.1 mcg/kg IV, 90 min post dose
  inhibition in vivo at 3 mg/kg: 29%
0.5 h, 5 mg/kg P.O., AII 0.05 mcg/kg IV, 30 min post dose
  inhibition in vivo at 5 mg/kg: 44%
0.5 h, 5 mg/kg P.O., AII 0.1 mcg/kg IV, 30 min post dose
  inhibition in vivo at 5 mg/kg: -5%
1 h, 5 mg/kg P.O., AII 0.05 mcg/kg IV, 60 min post dose
  inhibition in vivo at 5 mg/kg: 6%
1 h, 5 mg/kg P.O., AII 0.1 mcg/kg IV, 60 min post dose
  inhibition in vivo at 5 mg/kg: -5%
2 h, 5 mg/kg P.O., AII 0.05 mcg/kg IV, 120 min post dose
  inhibition in vivo at 5 mg/kg: 0%
2 h, 5 mg/kg P.O., AII 0.1 mcg/kg IV, 120 min post dose
  inhibition in vivo at 5 mg/kg: -8%
3 h, 5 mg/kg P.O., AII 0.05 mcg/kg IV, 180 min post dose
  inhibition in vivo at 5 mg/kg: 38%
3 h, 5 mg/kg P.O., AII 0.1 mcg/kg IV, 180 min post dose
  inhibition in vivo at 5 mg/kg: -14%
4 h, 5 mg/kg P.O., AII 0.05 mcg/kg IV, 240 min post dose
  inhibition in vivo at 5 mg/kg: 0%
4 h, 5 mg/kg P.O., AII 0.1 mcg/kg IV, 240 min post dose
  inhibition in vivo at 5 mg/kg: -20%
[…], 5 mg/kg P.O., AII 0.05 mcg/kg IV, 90 min post dose
  inhibition in vivo at 5 mg/kg: 19%
[…], 5 mg/kg P.O., AII 0.1 mcg/kg IV, 90 min post dose
  inhibition in vivo at 5 mg/kg: -8%
